A word on the Papp: it is a coefficient for how fast a substance crosses the barrier.

We go through five molecules from PMC4176484, “Comparative study of four immortalized human brain capillary endothelial cell lines, hCMEC/D3, hBMEC, TY10, and BB19, and optimization of culture conditions, for an in vitro blood–brain barrier model for drug permeability studies” (Fluids and Barriers of the CNS, 2013).

One data set relates to hBMEC mono-cultures. Kind of data set: Maximal TEER of hBMEC mono-cultures under different culture conditions, CellZscope. The settings on record: collagen type I coating.
Data set [1] in a line: Paracellular permeability (Papp) of marker compounds through TY10 mono-cultures on 24-well inserts. The settings on record: human, pH 7.4, TY10 monolayers (33°C 2 days, then 37°C 2 days), Greiner Bio-one transparent PET 3.0 μm inserts, mean ± S.E.M. It is filed as in vitro ADME. The protocol:
(§1) To further assess tight junction (TJ) integrity of endothelial cell layers, paracellular permeabilities of Na-F (MW 376.27) and LY (MW 550.39) were measured. These two fluorescent, non-P-glycoprotein (P-gp) substrate molecules have low BBB penetration and are widely used as barrier integrity markers for in vitro models. To obtain comparative data, hCMEC/D3 cells, hBMEC cells, and TY10 cells were seeded onto 24-well tissue culture inserts (Greiner Bio-one®, transparent polyethylene terephthalate (PET) membrane, 3.0 μm pore size, 0.6 × 10^6 pores/cm^2) and incubated at 37°C (5% CO2) (except TY10 cells) inside the CellZscope cell module (Figure 2). […]
TEER and CCL values before and after the assays were monitored continuously for integrity control. […]
(§2) For the permeability assay, tissue culture inserts were transferred into a 24-well plate containing 700 μL of pre-warmed (37°C) Ringer HEPES buffer (150 mM NaCl, 2.2 mM CaCl2, 0.2 mM MgCl2, 5.2 mM KCl, 2.8 mM glucose, 5 mM HEPES, and 6 mM NaHCO3, pH 7.4) in each well (basolateral compartment). […] Quantification of fluorescence (Na-F: excitation 490 nm, emission 514 nm; LY: excitation 430 nm, emission 535 nm) was carried out using a Chameleon microplate reader (Hidex, Turku, Finland). The apparent permeability coefficient (Papp) for Na-F and LY was calculated in centimeters/second (cm/s) according to the equation: […]

A short description of data set [2]: Paracellular permeability (Papp) of marker compounds through hCMEC/D3 mono-cultures on 24-well inserts. In kind it is in vitro ADME. The settings on record: human, Greiner Bio-one transparent PET 3.0 μm inserts, mean ± S.E.M. How it is done:
(§3) To further assess tight junction (TJ) integrity of endothelial cell layers, paracellular permeabilities of Na-F (MW 376.27) and LY (MW 550.39) were measured. These two fluorescent, non-P-glycoprotein (P-gp) substrate molecules have low BBB penetration and are widely used as barrier integrity markers for in vitro models. To obtain comparative data, hCMEC/D3 cells, hBMEC cells, and TY10 cells were seeded onto 24-well tissue culture inserts (Greiner Bio-one®, transparent polyethylene terephthalate (PET) membrane, 3.0 μm pore size, 0.6 × 10^6 pores/cm^2) and incubated at 37°C (5% CO2) (except TY10 cells) inside the CellZscope cell module (Figure 2). For TY10, the CellZscope system was first put at 33°C (5% CO2) for 2 days and was thereafter transferred to 37°C (5% CO2) for 2 days prior to the permeability assay (Figure 3D). Cell seeding density for hCMEC/D3 and hBMEC was 6.0 × 10^4 cells/cm^2, and for TY10 it was 3.0 × 10^4 cells/cm^2. For hBMEC, contact co-culture models with SVG-A cells (9.0 × 10^4 cells/cm^2) or HBPCT cells (6.0 × 10^4 cells/cm^2) on the basal side of the coated filter membranes were tested.
TEER and CCL values before and after the assays were monitored continuously for integrity control. All experiments for Na-F permeability were carried out at the time indicated with a black arrow in Figures 3A-D. For LY permeability assessment, TEER values were in the same range (graphs not shown). BB19 cells were not included in this permeability study since TEER values were extremely low.
(§4) For the permeability assay, tissue culture inserts were transferred into a 24-well plate containing 700 μL of pre-warmed (37°C) Ringer HEPES buffer (150 mM NaCl, 2.2 mM CaCl2, 0.2 mM MgCl2, 5.2 mM KCl, 2.8 mM glucose, 5 mM HEPES, and 6 mM NaHCO3, pH 7.4) in each well (basolateral compartment). Medium in inserts (apical compartment) was then replaced with 300 μL of a pre-warmed (37°C) working solution containing Na-F or LY at 10 μg/mL in Ringer HEPES buffer. The 24-well plate was incubated at 37°C on an orbital shaker (ELMI DTS-2, Riga, Latvia) with moderate speed (100 rpm) and aliquots of 250 μL of both apical and basolateral compartments were collected after 1 h. All experiments were performed at least in triplicate. Quantification of fluorescence (Na-F: excitation 490 nm, emission 514 nm; LY: excitation 430 nm, emission 535 nm) was carried out using a Chameleon microplate reader (Hidex, Turku, Finland). The apparent permeability coefficient (Papp) for Na-F and LY was calculated in centimeters/second (cm/s) according to the equation: […]

Data set [3] in a line: Paracellular permeability (Papp) of marker compounds through hBMEC mono-cultures on 24-well inserts. It is filed as in vitro ADME. The settings on record: human, mean ± S.E.M. How it is done:
as §3
TEER and CCL values before and after the assays were monitored continuously for integrity control. All experiments for Na-F permeability were carried out at the time indicated with a black arrow in Figures 3A-D. For LY permeability assessment, TEER values were in the same range (graphs not shown). […]
as §2

The nature of data set [4]: Recovery (mass balance) in permeability assays through mono-cultures. In kind it is in vitro ADME. The settings on record: human, pH 7.4; all mono-culture permeability experiments (hCMEC/D3, hBMEC, TY10). How it is done: as §4, with “All experiments were performed at least in triplicate.” left out
(§5) Recovery (mass balance) of Na-F and LY was calculated with the following equation: […]
[43] where CAf and CBf are the final concentrations of the compound in the apical and basolateral compartment, respectively, CA0 is the initial concentration in the apical compartment, and VA and VB are the volumes in the apical and basolateral compartments, respectively. All results are expressed as means ± S.E.M.

Data set [5] is described as follows: Paracellular permeability (Papp) through hBMEC contact co-culture with SVG-A astrocytes. In kind it is in vitro ADME. The settings on record: human, mean ± S.E.M. The protocol: as §1, §2
The nature of data set [6]: Recovery (mass balance) in permeability assays through hBMEC mono-cultures and contact co-cultures. It is filed as in vitro ADME. The settings on record: human, pH 7.4; all hBMEC mono-culture / co-culture experiments with SVG-A or HBPCT. How it is done: as §1, §2, §5
A short description of data set [7]: Paracellular permeability (Papp) through hBMEC contact co-culture with HBPCT pericytes. In kind it is in vitro ADME. The settings on record: human, mean ± S.E.M. The protocol:
as §1, §2

Where [8] appears, read: pH 7.4, hCMEC/D3 cultivated with growth medium containing 20% FBS.
The mark [9] stands for this setting: pH 7.4, hCMEC/D3 grown with initial medium containing 5% FBS.
[10] abbreviates: pH 7.4, hBMEC mono-culture, growth medium 20% FBS, Greiner Bio-one transparent PET 3.0 μm inserts, 10 μg/mL apical, 1 h, 37°C.

As for `C[C@]12CCC(=O)C=C1CC[C@@H]1[C@@H]2[C@@H](O)C[C@@]2(C)[C@H]1CC[C@]2(O)C(=O)CO` [HC, hydrocortisone], the “Mean max. TEER ± S.E.M.” value is 43.2 (± 4.27) Ωcm^2 with hBMEC mono-cultures (growth medium with additional HC 500 nM for 3 days (only apical), 4.5 × 10^4 cells/cm^2, at 3.19 d) and 40.4 (± 0.646) Ωcm^2 in the data set on hBMEC mono-cultures (growth medium with additional HC 1500 nM for 3 days (only apical), 4.5 × 10^4 cells/cm^2, at 3.19 d).

`C=CS(=O)(=O)c1cccc(N2C(=O)c3cc(S(=O)(=O)[O-])cc4c(N)c(S(=O)(=O)[O-])cc(c34)C2=O)c1.[Li+].[Li+]` [LY, Lucifer Yellow VS dilithium salt]: the Papp at 1 h, 10 μg/mL in data set [1] turned out to be 9.68 ± 0.413 ×10⁻⁶ cm/s; in data set [2] (setting [8]) it was 11.7 ± 0.957 ×10⁻⁶ cm/s; in data set [2] (setting [9]), 10 ± 0.498 ×10⁻⁶ cm/s; in data set [3] (setting [10]), 5.39 ± 0.364 ×10⁻⁶ cm/s. In addition, the recovery at 1 h, 10 μg/mL in data set [4] fell in the range of 66 to 79%.

As to `O=C([O-])c1ccccc1-c1c2ccc(=O)cc-2oc2cc([O-])ccc12.[Na+].[Na+]` [Na-F, sodium fluorescein], the Papp at 1 h, 10 μg/mL came out at 12.4 ± 0.155 ×10⁻⁶ cm/s in data set [1]; 13.4 ± 0.484 ×10⁻⁶ cm/s in data set [2] (setting [8]); 12.5 ± 0.326 ×10⁻⁶ cm/s in data set [2] (setting [9]); 6.88 ± 0.516 ×10⁻⁶ cm/s in data set [5] (pH 7.4, hBMEC co-cultured with SVG-A, medium deprived of growth factors, n = 3); 7.43 ± 0.2 ×10⁻⁶ cm/s in data set [5] (pH 7.4, hBMEC contact co-culture with SVG-A, medium with growth factors); 7.22 ± 0.455 ×10⁻⁶ cm/s in data set [7] (pH 7.4, hBMEC co-cultured with HBPCT, medium deprived of growth factors, n = 3). Besides, the Papp at 1 h, 10 μg/mL was found to be 8.26 ± 0.893 ×10⁻⁶ cm/s in data set [7] (pH 7.4, hBMEC contact co-culture with HBPCT, medium with growth factors); 5.08 ± 0.22 ×10⁻⁶ cm/s in data set [3] (setting [10]); 5.11 ± 0.0487 ×10⁻⁶ cm/s in data set [3] (pH 7.4, hBMEC monolayers cultured without growth factors, n = 3). Also, the values for the recovery at 1 h, 10 μg/mL in data set [6] and in data set [4] were 98 to 102% and 75 to 87%, respectively.

As for `C[C@@H]1C[C@H]2[C@@H]3CCC4=CC(=O)C=C[C@]4(C)[C@@]3(F)[C@@H](O)C[C@]2(C)[C@@]1(O)C(=O)CO` [dexamethasone], the “Mean max. TEER ± S.E.M.” value was 35.9 (± 0.338) Ωcm^2 in the data set on hBMEC mono-cultures (growth medium with dexamethasone 500 nM for 3 days (only apical), 9.0 × 10^4 cells/cm^2, at 4.15 d) and 38.0 (± 1.26) Ωcm^2 in the data set with hBMEC mono-cultures (growth medium with dexamethasone 1000 nM for 3 days (only apical), 9.0 × 10^4 cells/cm^2, at 4.15 d).

Consider human epidermal growth factor [hEGF], for which the “Mean max. TEER ± S.E.M.” value with hBMEC mono-cultures (growth medium with additional hEGF 50 ng/mL for 3 days (only apical), 9.0 × 10^4 cells/cm^2, at 4.15 d) was 36.4 (± 0.902) Ωcm^2; with hBMEC mono-cultures (growth medium with additional hEGF 100 ng/mL for 3 days (only apical), 9.0 × 10^4 cells/cm^2, at 4.15 d), 40.0 (± 1.94) Ωcm^2.
